Data reported in US11739074B2, “Ras inhibitors” (Revolution Medicines, Inc., priority 2019, dated 2023).
Where two headings read alike, the source gives them in different places.

How the values were obtained:
[1] = ester bond, EDCI/HOBt/DIPEA, DCM, 16.0 h
[2] = from CCn1c(-c2cccnc2[C@H](C)OC)c(CC(C)(C)CO)c2cc(-c3cc(C[C@H](NC(=O)OC(C)(C)C)C(=O)N4CCC[C@@H](C(=O)O)N4)cc(C(F)F)c3)ccc21; ester bond; 18-membered ring; EDCI/HOBt/DIEA; DCM; 21.0 mM; 25.0 °C
NRAS WT = molecular target: T1, NRAS WT (Homo sapiens, UniProt P01111+P62937); experiment: Ras-Raf disruption/FRET/MOA assay, NRAS WT; format: biochemical; settings: NRAS WT; read-out: NRAS WT FRET data IC50
T1 construct: His6
Excerpt: (§1) Disruption of B-Raf Ras-Binding Domain (BRAF^RBD) Interaction with K-Ras by Compounds of the Invention (Also Called a FRET Assay or an MOA Assay)
(§2) Note—The following protocol describes a procedure for monitoring disruption of K-Ras G12C (GMP-PNP) binding to BRAF^RBD by a compound of the invention. This protocol may also be executed substituting other Ras proteins or nucleotides, such as K-Ras G12D and K-Ras G13D.
(§3) The purpose of this biochemical assay was to measure the ability of test compounds to facilitate ternary complex formation between a nucleotide-loaded K-Ras isoform and Cyclophilin A; the resulting ternary complex disrupts binding to a BRAF^RBD construct, inhibiting K-Ras signaling through a RAF effector.
(§4) In assay buffer containing 25 mM HEPES pH 7.3, 0.002% Tween20, 0.1% BSA, 100 mM NaCl and 5 mM MgCl2, tagless Cyclophilin A, His6-K-Ras-GMPPNP, and GST-BRAF^RBD were combined in a 384-well assay plate at final concentrations of 25 μM, 12.5 nM, and 50 nM, respectively. Compound was present in plate wells as a 10-point 3-fold dilution series starting at a final concentration of 30 μM. After incubation at 25° C. for 3 hours, a mixture of anti-His Eu-W1024 and anti-GST allophycocyanin was then added to assay sample wells at final concentrations of 10 nM and 50 nM, respectively, and the reaction incubated for an additional 1.5 hours. […] Compounds that facilitate disruption of a K-Ras:RAF complex were identified as those eliciting a decrease in the TR-FRET ratio relative to DMSO control wells.

KRAS G12D = KRAS G12D (Homo sapiens, UniProt P01116+P62937, G12D); experiment: Ras-Raf disruption/FRET/MOA assay, KRAS G12D; format: biochemical; settings: disruption of BRAF RBD binding, with Cyclophilin A; read-out: KRAS G12D FRET IC50
How it was run: (§5)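 His6-K-Ras-GMPPNP (12.5 nM) was incubated with GST-BRAF RBD (50 nM), tagless cyclophilin A (25 µM) and compound (10-point 3-fold series from 30 µM) in HEPES pH 7.3 buffer for 3 h at 25 °C. Anti-His Eu/anti-GST APC were then added for 1.5 h; disruption was read as a drop in TR-FRET ratio versus DMSO.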

KRAS G12V = KRAS G12V (Homo sapiens, UniProt P01116+P62937, G12V); experiment: Ras-Raf disruption/FRET/MOA assay, KRAS G12V; format: biochemical; settings: disruption of BRAF RBD binding, with Cyclophilin A; read-out: KRAS G12V FRET IC50
How it was run: as §5

AsPC-1 (K-Ras G12D) [3] = experiment: CellTiter-Glo cell viability assay, AsPC-1; format: cell-based; settings: Homo sapiens, ASPC1, 120 h, AsPC-1, K-Ras G12D, 5-day treatment; read-out: AsPC-1 Cell Viability IC50
How it was run: (§6)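 Viability is scored by CellTiter-Glo luminescence on day 5 of compound treatment, relative to vehicle (DMSO) wells set as 100%, with a four-parameter logistic fit.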

AsPC-1 (K-Ras G12D) [4] = experiment: Potency assay: pERK in AsPC-1 cells; format: cell-based; settings: Homo sapiens, ASPC1; AsPC-1 cells, K-Ras G12D; read-out: pERK EC50 (AsPC-1 KRAS G12D)
NRAS Q61R = molecular target: T2, NRAS Q61R (Homo sapiens, UniProt P01111+P62937, Q61R); experiment: Ras-Raf disruption/FRET/MOA assay, NRAS Q61R; format: biochemical; settings: NRAS Q61R; read-out: NRAS Q61R FRET data IC50
T2 construct: His6
Excerpt: as §1, §2, §3, §4

KRAS WT = KRAS WT (Homo sapiens, UniProt P01116+P62937); experiment: Ras-Raf disruption/FRET/MOA assay, KRAS WT; format: biochemical; settings: disruption of BRAF RBD binding, with Cyclophilin A; read-out: KRAS WT FRET IC50
How it was run: as §5

NRAS G12C = molecular target: T3, NRAS G12C (Homo sapiens, UniProt P01111+P62937, G12C); experiment: Ras-Raf disruption/FRET/MOA assay, NRAS G12C; format: biochemical; settings: NRAS G12C; read-out: NRAS G12C FRET data IC50
T3 construct: His6
How it was run: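 Disruption of Ras:RAF binding was read as a drop in TR-FRET ratio versus DMSO controls. The buffer was 25 mM HEPES pH 7.3, 0.002% Tween20, 0.1% BSA, 100 mM NaCl and 5 mM MgCl2. Compounds were tested as a 10-point 3-fold dilution series from 30 μM. Detection used 10 nM anti-His Eu-W1024 and 50 nM anti-GST allophycocyanin.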

KRAS G12C = KRAS G12C (Homo sapiens, UniProt P01116+P62937, G12C); experiment: Ras-Raf disruption/FRET/MOA assay, KRAS G12C; format: biochemical; settings: disruption of BRAF RBD binding, with Cyclophilin A; read-out: KRAS G12C FRET IC50
How it was run: as §5

KRAS G12S = KRAS G12S (Homo sapiens, UniProt P01116+P62937, G12S); experiment: Ras-Raf disruption/FRET/MOA assay, KRAS G12S; format: biochemical; settings: disruption of BRAF RBD binding, with Cyclophilin A; read-out: KRAS G12S FRET IC50
How it was run: as §5

NCI-H358 (K-Ras G12C) = experiment: CellTiter-Glo cell viability assay, H358; format: cell-based; settings: Homo sapiens, NCI-H358, 120 h, NCI-H358, K-Ras G12C, 5-day treatment; read-out: H358 Cell Viability IC50
How it was run: as §6

KRAS G13D = KRAS G13D (Homo sapiens, UniProt P01116+P62937, G13D); experiment: Ras-Raf disruption/FRET/MOA assay, KRAS G13D; format: biochemical; settings: disruption of BRAF RBD binding, with Cyclophilin A; read-out: KRAS G13D FRET IC50
How it was run: as §5

KRAS Q61H = KRAS Q61H (Homo sapiens, UniProt P01116+P62937, Q61H); experiment: Ras-Raf disruption/FRET/MOA assay, KRAS Q61H; format: biochemical; settings: KRAS Q61H; read-out: KRAS Q61H FRET data IC50
Excerpt: as §1, §2, §3, §4

NRAS Q61K = molecular target: T4, NRAS Q61K (Homo sapiens, UniProt P01111+P62937, Q61K); experiment: Ras-Raf disruption/FRET/MOA assay, NRAS Q61K; format: biochemical; settings: NRAS Q61K; read-out: NRAS Q61K FRET data IC50
T4 construct: His6
Excerpt: as §1, §2, §3, §4

KRAS G13C = KRAS G13C (Homo sapiens, UniProt P01116+P62937, G13C); experiment: Ras-Raf disruption/FRET/MOA assay, KRAS G13C; format: biochemical; settings: disruption of BRAF RBD binding, with Cyclophilin A; read-out: KRAS G13C FRET IC50
How it was run: as §5

Sequence of KRAS G13C (P01116 1-169 isoform P01116-2 G13C limits assumed): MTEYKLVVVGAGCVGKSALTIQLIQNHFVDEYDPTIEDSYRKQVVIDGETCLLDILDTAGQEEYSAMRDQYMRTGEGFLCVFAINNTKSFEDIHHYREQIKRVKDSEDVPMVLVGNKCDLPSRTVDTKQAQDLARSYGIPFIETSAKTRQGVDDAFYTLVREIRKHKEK
Sequence of KRAS G13C (P62937 whole entry): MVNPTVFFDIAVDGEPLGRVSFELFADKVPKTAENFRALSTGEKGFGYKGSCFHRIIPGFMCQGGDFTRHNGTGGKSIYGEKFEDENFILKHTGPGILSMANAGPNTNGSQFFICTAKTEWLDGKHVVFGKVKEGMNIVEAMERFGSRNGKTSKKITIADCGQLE
Sequence of KRAS WT (P01116 1-169 isoform P01116-2 limits assumed): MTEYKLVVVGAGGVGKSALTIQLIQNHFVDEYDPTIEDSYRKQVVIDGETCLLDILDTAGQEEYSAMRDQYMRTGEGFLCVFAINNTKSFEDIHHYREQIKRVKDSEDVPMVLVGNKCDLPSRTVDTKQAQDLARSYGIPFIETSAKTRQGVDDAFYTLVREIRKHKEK
Sequence of KRAS WT (P62937 whole entry): as the sequence (P62937 whole entry) above
Sequence of KRAS G12S (P01116 1-169 isoform P01116-2 G12S limits assumed): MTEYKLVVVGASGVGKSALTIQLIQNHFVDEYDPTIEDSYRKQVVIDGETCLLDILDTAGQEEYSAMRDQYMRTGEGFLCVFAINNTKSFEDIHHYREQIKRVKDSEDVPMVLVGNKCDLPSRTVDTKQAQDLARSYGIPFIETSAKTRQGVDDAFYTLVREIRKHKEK
Sequence of KRAS G12S (P62937 whole entry): as the sequence (P62937 whole entry) above
Sequence of KRAS Q61H (P01116 1-169 isoform P01116-2 Q61H limits assumed): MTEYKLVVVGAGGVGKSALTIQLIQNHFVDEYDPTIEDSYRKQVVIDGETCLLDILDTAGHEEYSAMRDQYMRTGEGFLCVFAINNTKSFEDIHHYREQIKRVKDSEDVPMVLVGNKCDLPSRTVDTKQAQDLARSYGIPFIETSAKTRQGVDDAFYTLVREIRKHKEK
Sequence of KRAS Q61H (P62937 whole entry): as the sequence (P62937 whole entry) above
Sequence of KRAS G12V (P01116 1-169 isoform P01116-2 G12V limits assumed): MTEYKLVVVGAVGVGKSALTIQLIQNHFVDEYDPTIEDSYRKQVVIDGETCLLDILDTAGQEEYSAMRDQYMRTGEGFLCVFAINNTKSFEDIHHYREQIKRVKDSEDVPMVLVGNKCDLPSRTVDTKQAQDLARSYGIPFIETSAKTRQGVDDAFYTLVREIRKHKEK
Sequence of KRAS G12V (P62937 whole entry): as the sequence (P62937 whole entry) above
T4 sequence (P01111 whole entry Q61K): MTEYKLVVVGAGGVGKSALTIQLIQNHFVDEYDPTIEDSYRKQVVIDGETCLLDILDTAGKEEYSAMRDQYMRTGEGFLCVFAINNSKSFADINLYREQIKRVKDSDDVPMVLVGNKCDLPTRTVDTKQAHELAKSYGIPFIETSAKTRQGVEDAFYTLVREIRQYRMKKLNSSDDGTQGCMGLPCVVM
T4 sequence (P62937 whole entry): as the sequence (P62937 whole entry) above
T2 sequence (P01111 whole entry Q61R): as the sequence (P01111 whole entry Q61K) above, with K61R counted along it
T2 sequence (P62937 whole entry): as the sequence (P62937 whole entry) above
Sequence of KRAS G12D (P01116 1-169 isoform P01116-2 G12D limits assumed): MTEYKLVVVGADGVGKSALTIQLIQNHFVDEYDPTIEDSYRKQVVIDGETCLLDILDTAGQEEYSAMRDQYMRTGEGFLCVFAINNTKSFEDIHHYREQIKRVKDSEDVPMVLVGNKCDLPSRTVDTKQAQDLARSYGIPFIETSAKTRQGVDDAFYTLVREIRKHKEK
Sequence of KRAS G12D (P62937 whole entry): as the sequence (P62937 whole entry) above
Sequence of KRAS G13D (P01116 1-169 isoform P01116-2 G13D limits assumed): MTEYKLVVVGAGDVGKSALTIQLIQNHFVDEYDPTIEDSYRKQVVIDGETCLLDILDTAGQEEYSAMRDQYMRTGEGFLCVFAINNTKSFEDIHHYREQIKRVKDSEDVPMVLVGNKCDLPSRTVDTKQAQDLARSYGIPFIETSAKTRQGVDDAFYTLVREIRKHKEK
Sequence of KRAS G13D (P62937 whole entry): as the sequence (P62937 whole entry) above
Sequence of KRAS G12C (P01116 1-169 isoform P01116-2 G12C limits assumed): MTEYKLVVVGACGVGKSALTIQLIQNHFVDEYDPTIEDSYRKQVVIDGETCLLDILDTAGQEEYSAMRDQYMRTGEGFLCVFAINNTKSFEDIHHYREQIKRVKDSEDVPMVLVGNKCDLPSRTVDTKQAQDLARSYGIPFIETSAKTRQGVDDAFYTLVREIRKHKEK
Sequence of KRAS G12C (P62937 whole entry): as the sequence (P62937 whole entry) above
T3 sequence (P01111 whole entry G12C): as the sequence (P01111 whole entry Q61K) above, with G12C, K61Q counted along it
T3 sequence (P62937 whole entry): as the sequence (P62937 whole entry) above
T1 sequence (P01111 whole entry): as the sequence (P01111 whole entry Q61K) above, with K61Q counted along it
T1 sequence (P62937 whole entry): as the sequence (P62937 whole entry) above

Structure (SMILES)	ring closure, yield of all isomers ([1]; from CCn1c(-c2cccnc2[C@H](C)OC)c(CC(C)(C)CO)c2cc(-c3cc(C[C@H](NC(=O)OC(C)(C)C)C(=O)N4CCC[C@@H](C(=O)O)N4)cc(C(F)F)c3)ccc21, 21.05 mM, 25.0 °C) [%]	ring closure, isolated yield [2] [%]	IC50 (NRAS WT) [nM]	IC50 (KRAS G12D) [nM]	IC50 (KRAS G12V) [nM]	IC50 (AsPC-1 (K-Ras G12D) [3]) [nM]	EC50 (AsPC-1 (K-Ras G12D) [4]) [µM]	IC50 (NRAS Q61R) [nM]	IC50 (KRAS WT) [nM]	IC50 (NRAS G12C) [nM]	IC50 (KRAS G12C) [nM]	IC50 (KRAS G12S) [nM]	IC50 (NCI-H358 (K-Ras G12C)) [nM]	IC50 (KRAS G13D) [µM]	IC50 (KRAS Q61H) [nM]	IC50 (NRAS Q61K) [nM]	IC50 (KRAS G13C) [nM]	ring closure, yield of all isomers ([1]; from CC(C)(CO)Cc1c(I)[nH]c2ccc(-c3cccc(C[C@H](NC(=O)OC(C)(C)C)C(=O)N4CCC[C@@H](C(=O)O)N4)c3)cc12, 12.8 mM, 0.0 °C) [%]
CCn1c(-c2cccnc2[C@H](C)OC)c2c3cc(ccc31)-c1cc(cc(C(F)F)c1)C[C@H](NC(=O)OC(C)(C)C)C(=O)N1CCC[C@H](N1)C(=O)OCC(C)(C)C2	71.6	71.6																
CCn1c(-c2cccnc2[C@H](C)OC)c2c3cc(ccc31)-c1csc(n1)C[C@H](NC(=O)[C@H](C1CCCC1)N1CC[C@]3(CCN(C(=O)[C@H]4CN4)C3)C1=O)C(=O)N1CCC[C@H](N1)C(=O)OCC(C)(C)C2 [Compound 319]			1000 to 10000	1000 to 10000	1000 to 10000	100 to 1000	< 5	1000 to 10000	1000 to 10000	10 to 100	10 to 100	1000 to 10000	< 10	1 to 10	100 to 1000	100 to 1000	100 to 1000	
CCn1c(-c2cc(N3CCN(C)CC3)cnc2[C@H](C)OC)c2c3cc(ccc31)-c1csc(n1)C[C@H](NC(=O)[C@H](C1CCCC1)N1CC[C@]3(CCN(C(=O)[C@@H]4N[C@@H]4C4CC4)C3)C1=O)C(=O)N1CCC[C@H](N1)C(=O)OCC(C)(C)C2 [Compound 324]			100 to 1000	100 to 1000	100 to 1000	10 to 100	< 5	100 to 1000	100 to 1000	100 to 1000	100 to 1000	100 to 1000	< 10	1 to 10	100 to 1000	100 to 1000	100 to 1000	
CC1(C)COC(=O)[C@@H]2CCCN(N2)C(=O)[C@@H](NC(=O)OC(C)(C)C)Cc2cccc(c2)-c2ccc3[nH]c(I)c(c3c2)C1																		79.8
